These are literature values, as cited in US20080103118A1, “COMPOSITION FOR IMPROVING BLOOD CHOLESTEROL LEVELS” (IOMEDIX DEVELOPMENT INTERNATIONAL SRL, priority 2006, published 2008).

For the data set the following is noted: 117 individuals, 63 Niacin, 54 placebo.

On to `O=C(O)c1cccnc1` [Niacin, nicotinic acid], for which the “high-density lipoprotein cholesterol (HDL-C)” value was “increase”, the “low-density lipoprotein cholesterol (LDL-C)” value is given as “decrease”, the total cholesterol entry is given as “decrease” and the triglyceride levels result is “decrease”.
